# Measurements published in US20080200473A1, “Imidazo [1,2-a]Pyridine Compounds, Compositions, Uses and Methods Thereto” (Ferrer Internacional, S.A., priority 2004, published 2008).
# Legend:
# [1] = test system: α1-GABAA receptor; experiment: Ligand-binding assay, competitive with radiolabeled flumazenil, cerebellum membranes; conditions: Affinity for α1-GABAA receptor, rat cerebellum membranes, radiolabeled flumazenil 1 nM; for % Inhibition 10^−5M: 10^-5M test compound; for % Inhibition 10^−7M: 10^-7M test compound
# Experimental: (§1) Ligand-binding assays. Determination of the affinity of test compounds for α1- and α2-GABAA receptor.
# (§2) Male Sprague-Dawley rats weighing 200-250 g at the time of experiment were used. After decapitation of the animal, the cerebellum (tissue that mostly contains α1-GABAA receptor) and spinal cord (tissue that mostly contains α2-GABAA receptor) were removed. The membranes were prepared according to the method by J. Lameh et al. (Prog. Neuro-Psychopharmacol. Biol. Psychiatry, 24, 979-991, 2000) and H. Noguchi et al. (Eur. J. Pharm., 434, 21-28, 2002). Once the tissues weighed, they were suspended in 50 mM Tris.HCl (pH 7.4), 1:40 (w/v), or sucrose 0.32 M in the case of spinal cord, homogenized and then centrifuged at 20,000 g for 10 min at 7° C. twice. The resulting pellet was resuspended under the same conditions and centrifuged again. The pellet was finally resuspended on a minimum volume and kept at −80° C. overnight. On the next day, the process was repeated until the final pellet was resuspended at a ratio of 1:10 (w/v) in the case of cerebellum and at a ratio of 1:5 (w/v) in the case of spinal cord.
# (§3) Affinity was determined by competitive tests using radiolabeled flumazenil as ligand. The tests were performed according to the methods described by S. Arbilla et al. (Eur. J. Pharmacol., 130, 257-263, 1986); and Y. Wu et al. (Eur. J. Pharmacol., 278, 125-132, 1995) using 96-well microtiter plates. The membranes containing the study receptors, flumazenil (radiolabeling at a final concentration of 1 nM) and ascending concentrations of test compounds (in a total volume of 230 μL in 50 mM [ph 7.4] Tris.HCl buffer) were incubated. Simultaneously, the membranes were only incubated with the radiolabeled flumazenil (total binding, 100%) and in the presence of an elevated concentration of unradiolabeled flumazenil (non-specific binding, % estimation of radiolabeled ligand). The reactions started on adding the radiolabeled ligand followed by incubation for 60 minutes at 4° C. At the end of the incubation period, 200 μL of reaction were transferred to a multiscreen plate (Millipore) and filtered using a vacuum manifold and then washed three times with cold test buffer. The multiscreen plates were equipped with a GF/B filter that retained the membranes containing the receptors and the radiolabeled ligand which has been bound to the receptors. After washing, the plates were left till dry. Once dried, scintillation liquid was added and left under stirring overnight. The next day the plates were counted using a Perkin-Elmer Microbeta scintillation counter.
# (§4) For analysis of the results the percentage of specific binding for every concentration of test compound was calculated as follows:
# (§5) % specific binding=(X−N/T−N)×100
# (§6) where, X: amount of bound ligand for every concentration of compound. T: total binding, maximum amount bound to the radiolabeled ligand. N: non-specific binding, amount of radiolabeled ligand bound in a non-specific way irrespective of the receptor used.
# (§7) Every concentrations of compound were tested in triplicate and their mean values were used to determine the experimental values of % specific binding versus the concentration of compound. Affinity data are expressed as % inhibition at 10^-5M and 10^-7M concentrations.
# [2] = test system: α2-GABAA receptor; experiment: Ligand-binding assay, competitive with radiolabeled flumazenil, spinal cord membranes; conditions: Affinity for α2-GABAA receptor, rat spinal cord membranes, radiolabeled flumazenil 1 nM; for % Inhibition 10^−5M: 10^-5M test compound; for % Inhibition 10^−7M: 10^-7M test compound
# Experimental: as §1, §2, §3, §4, §5, §6, §7
# [3] = test system: mice; experiment: In vivo predictive sedation-hypnosis test (inhibition of traveled distance); parameters: species or system mouse; conditions: male CD1 mice; single equimolecular intraperitoneal doses; traveled distance over 30 min after dosing (first 5 min discarded) versus control
# Experimental: In vivo determination of predictive sedative-hypnotic action.
# The in vivo effects of these compounds were assessed by a predictive sedation-hypnosis test in mice (D. J. Sanger et al., Eur. J. Pharmacol., 313, 35-42, 1996; and G. Griebel et al., Psychopharmacology, 146, 205-213, 1999).
# Groups of 5-8 male CD1 mice, weighing 22-26 g at the time of test, were used. The test compounds were administered in single equimolecular intraperitoneal doses, suspended in 0.25% agar with one drop of Tween in a volume of 10 mL/kg. Control animals received the vehicle alone. Using a Smart System (Panlab, S. L., Spain) the traveled distance in cm is recorded for each mouse at 5-min intervals during a period of 30 minutes after dosing. The inhibition percentage of traveled distance of treated animals versus control animals (the first 5 min were discarded) was calculated.
SMILES,% Inhibition 10^−5M [1] [%],% Inhibition 10^−7M [1] [%],% Inhibition 10^−5M [2] [%],% Inhibition 10^−7M [2] [%],% Inhibition Motor Activity [3] [%]
"Cc1ccc(-c2nc3ccc(C)cn3c2CNC(=O)c2cccnc2)cc1 [Example 63, N-(6-Methyl-2-p-tolyl-imidazo[1,2-a]pyridin-3-ylmethyl)-nicotinamide]",98.5,36.1,89.8,13.4,74.86
"Cc1ccc(-c2nc3ccc(C)cn3c2CNC(=O)c2cn(C)cn2)cc1 [Example 74, 1-Methyl-1H-imidazole-4-carboxylic acid (6-methyl-2-p-tolyl-imidazo[1,2-a]pyridin-3-ylmethyl)-amide]",99.9,95.3,98.6,63.0,77.37
"COc1ccc(C(=O)NCc2c(-c3ccc(C)cc3)nc3ccc(C)cn23)cc1 [Example 11, 4-Methoxy-N-(6-methyl-2-p-tolyl-imidazo[1,2-a]pyridin-3-ylmethyl)-benzamide]",70.7,29.0,6.5,0.0,55.43
"Cc1ccc(-c2nc3ccc(C)cn3c2CNC(=O)c2csc(C)n2)cc1 [Example 69, 2-Methyl-thiazole-4-carboxylic acid (6-methyl-2-p-tolyl-imidazo[1,2-a]pyridin-3-ylmethyl)-amide]",100.4,93.4,98.8,74.1,78.41
"Cc1ccc(-c2nc3ccc(C)cn3c2CC(=O)N(C)C)cc1 [Zolpidem, reference compound]",94.4,73.6,78.2,20.1,90.80
"Cc1ccc(-c2nc3ccc(C)cn3c2CN(C)C(=O)c2ccccn2)cc1 [Example 28, Pyridine-2-carboxylic acid methyl-(6-methyl-2-p-tolyl-imidazo[1,2-a]pyridin-3-ylmethyl)-amide]",99.8,73.3,93.9,14.3,55.64
"Cc1ccc(-c2nc3ccc(C)cn3c2CNC(=O)C2=NNC(=O)CC2)cc1 [Example 65, 6-Oxo-1,4,5,6-tetrahydro-pyridazine-3-carboxylic acid (6-methyl-2-p-tolyl-imidazo[1,2-a]pyridin-3-ylmethyl)-amide]",99.5,83.9,95.4,39.1,85.22
"Cc1ccc(-c2nc3ccc(C)cn3c2CN(C)C(=O)c2ccc([N+](=O)[O-])o2)cc1 [Example 32, 5-Nitro-furan-2-carboxylic acid methyl-(6-methyl-2-p-tolyl-imidazo[1,2-a]pyridin-3-ylmethyl)-amide]",98.0,14.5,77.5,0.0,92.66
"COc1ccc(C(=O)N(C)Cc2c(-c3ccc(C)cc3)nc3ccc(C)cn23)cc1 [Example 25, 4-Methoxy-N-methyl-N-(6-methyl-2-p-tolyl-imidazo[1,2-a]pyridin-3-ylmethyl)-benzamide]",91.9,26.6,0.0,0.0,67.34
"Cc1ccc(C(=O)N(C)Cc2c(-c3ccc(C)cc3)nc3ccc(C)cn23)cc1 [Example 30, 4,N-Dimethyl-N-(6-methyl-2-p-tolyl-imidazo[1,2-a]pyridin-3-ylmethyl)-benzamide]",90.5,4.6,33.9,0.0,44.36
"Cc1ccc(-c2nc3ccc(C)cn3c2CNC(=O)c2cc(C)n(C)n2)cc1 [Example 67, 1,5-Dimethyl-1H-pyrazole-3-carboxylic acid (6-methyl-2-p-tolyl-imidazo[1,2-a]pyridin-3-ylmethyl)-amide]",99.6,84.7,96.6,47.3,78.09
"Cc1ccc(-c2nc3ccc(C)cn3c2CNC(=O)c2ccc3ccccc3n2)cc1 [Example 19, Quinoline-2-carboxylic acid (6-methyl-2-p-tolyl-imidazo[1,2-a]pyridin-3-ylmethyl)-amide]",95.5,0.0,47.6,0.0,47.98
"Cc1ccc(-c2nc3ccc(C)cn3c2CNC(=O)c2nc(C)oc2C)cc1 [Example 83, 2,5-Dimethyl-oxazole-4-carboxylic acid (6-methyl-2-p-tolyl-imidazo[1,2-a]pyridin-3-ylmethyl)-amide]",100.0,93.6,93.2,71.1,93.22
"Cc1ccc(-c2nc3ccc(C)cn3c2CNC(=O)c2ccnc(Cl)c2)cc1 [Example 17, 2-Chloro-N-(6-methyl-2-p-tolyl-imidazo[1,2-a]pyridin-3-ylmethyl)-isonicotinamide]",94.5,0.0,24.4,0.0,54.40
"Cc1ccc(-c2nc3ccc(C)cn3c2CNC(=O)c2cnccn2)cc1 [Example 89, Pyrazine-2-carboxylic acid (6-methyl-2-p-tolyl-imidazo[1,2-a]pyridin-3-ylmethyl)-amide]",100.3,88.2,98.2,54.5,74.65
"COc1ccc2nc(C(=O)NCc3c(-c4ccc(C)cc4)nc4ccc(C)cn34)sc2c1 [Example 21, 6-Methoxy-benzothiazole-2-carboxylic acid (6-methyl-2-p-tolyl-imidazo[1,2-a]pyridin-3-ylmethyl)-amide]",67.9,3.5,25.6,0.0,57.14
"Cc1ccc(-c2nc3ccc(C)cn3c2CNC(=O)C2CCC2)cc1 [Example 58, Cyclobutanecarboxylic acid (6-methyl-2-p-tolyl-imidazo[1,2-a]pyridin-3-ylmethyl)-amide]",98.8,6.5,78.6,9.2,94.25
